In patent US6339046B1, “Pyrazde herbicides” (Syngenta Investment Corporation, priority 1996, dated 2002):

How the values were obtained:
Ipomoea [1] = experiment: Pre-emergence herbicidal action (Example B1); type: in vivo; settings: 500 g of a.i./ha, sprayed immediately after sowing, evaluated after 3 weeks, nine-step scale (1=complete damage, 9=no action)
Procedure: (§1) Herbicidal Action Before Emergence of the Plants (Pre-emergence Action)
(§2) Monocotyledoneous and dicotyledoneous test plants are grown in standard soil in plastic pots. Immediately after sowing, the test substances are sprayed on in the form of an aqueous suspension or emulsion, prepared from a 25% emulsion concentrate (Example F1, c)), which corresponds to a dosage of 500 g of a.i./ha (500 l of water/ha). The test plants are subsequently grown in the greenhouse under optimal conditions. After a test period of 3 weeks, the experiment is evaluated on a nine-step scale (1=complete damage, 9=no action). Score figures of 1 to 4 (in particular 1 to 3) denote a good to very good herbicidal action.
(§3) Test plants: Avena, Setaria, Solanum, Stellaria, Ipomoea.

Avena = experiment: Pre-emergence herbicidal action (Example B1); type: in vivo; settings: 500 g of a.i./ha, sprayed immediately after sowing, evaluated after 3 weeks, nine-step scale (1=complete damage, 9=no action)
Procedure: as §1, §2, §3

Stellaria [2] = experiment: Pre-emergence herbicidal action (Example B1); type: in vivo; design: key: 1=complete damage; 9=no action; Score figures of 1 to 4 (in particular 1 to 3) denote a good to very good herbicidal action; settings: 500 g of a.i./ha, sprayed immediately after sowing, evaluated after 3 weeks, nine-step scale (1=complete damage, 9=no action)
Procedure: as §1, §2, §3

Solanum [3] = experiment: Pre-emergence herbicidal action (Example B1); type: in vivo; design: key: 1=complete damage; 9=no action; Score figures of 1 to 4 (in particular 1 to 3) denote a good to very good herbicidal action; settings: 500 g of a.i./ha, sprayed immediately after sowing, evaluated after 3 weeks, nine-step scale (1=complete damage, 9=no action)
Procedure: as §1, §2, §3

Setaria [4] = experiment: Pre-emergence herbicidal action (Example B1); type: in vivo; design: key: 1=complete damage; 9=no action; Score figures of 1 to 4 (in particular 1 to 3) denote a good to very good herbicidal action; settings: 500 g of a.i./ha, sprayed immediately after sowing, evaluated after 3 weeks, nine-step scale (1=complete damage, 9=no action)
Procedure: as §1, §2, §3

Stellaria [5] = experiment: Post-emergence herbicidal action (Example B2); type: in vivo; design: key: 1=complete damage; 9=no action; Score figures of 1 to 4 (in particular 1 to 3) denote a good to very good herbicidal action; settings: 500 g of a.i./ha, sprayed in the 4- to 6-leaf stage, evaluated after approximately 18 days, nine-step scale (1=complete damage, 9=no action)
Procedure: (§4) Post-emergence Herbicidal Action
(§5) In the greenhouse, monocotyledoneous and dicotyledoneous test plants are grown in standard soil in plastic pots and, in the 4- to 6-leaf stage, sprayed with an aqueous suspension or emulsion of the test substances of the formula I, prepared from a 25% emulsion concentrate (Example F1, c)), which corresponds to a dosage of 500 g of a.i./ha (500 l of water/ha). The test plants are subsequently grown on in the greenhouse under optimal conditions. After a test period of approximately 18 days, the experiment is evaluated on a nine-step scale (1=complete damage, 9=no action). Score figures of 1 to 4 (in particular 1 to 3) denote a good to very good herbicidal action.
(§6) Test plants: Setaria, Sinapis, Solanum, Stellaria, Ipomoea.

Solanum [6] = experiment: Post-emergence herbicidal action (Example B2); type: in vivo; design: key: 1=complete damage; 9=no action; Score figures of 1 to 4 (in particular 1 to 3) denote a good to very good herbicidal action; settings: 500 g of a.i./ha, sprayed in the 4- to 6-leaf stage, evaluated after approximately 18 days, nine-step scale (1=complete damage, 9=no action)
Procedure: as §4, §5, §6

Ipomoea [7] = experiment: Post-emergence herbicidal action (Example B2); type: in vivo; design: key: 1=complete damage; 9=no action; Score figures of 1 to 4 (in particular 1 to 3) denote a good to very good herbicidal action; settings: 500 g of a.i./ha, sprayed in the 4- to 6-leaf stage, evaluated after approximately 18 days, nine-step scale (1=complete damage, 9=no action)
Procedure: as §4, §5, §6

Sinapis = experiment: Post-emergence herbicidal action (Example B2); type: in vivo; design: key: 1=complete damage; 9=no action; Score figures of 1 to 4 (in particular 1 to 3) denote a good to very good herbicidal action; settings: 500 g of a.i./ha, sprayed in the 4- to 6-leaf stage, evaluated after approximately 18 days, nine-step scale (1=complete damage, 9=no action)
Procedure: as §4, §5, §6

Setaria [8] = experiment: Post-emergence herbicidal action (Example B2); type: in vivo; design: key: nine-step scale: 1 = complete damage, 9 = no action; settings: 500 g of a.i./ha, sprayed in the 4- to 6-leaf stage, evaluated after approximately 18 days, nine-step scale (1=complete damage, 9=no action)
Procedure: as §4, §5, §6

Structure (SMILES)	Pre-emergence action, score, test plant Ipomoea (Ipomoea [1])	Pre-emergence action, score, test plant Avena (Avena)	Pre-emergence action, score, test plant Stellaria (Stellaria [2])	Pre-emergence action, score, test plant Solanum (Solanum [3])	Pre-emergence action, score, test plant Setaria (Setaria [4])	melting point [°C]	Post-emergence action, score, test plant Stellaria (Stellaria [5])	Post-emergence action, score, test plant Solanum (Solanum [6])	Post-emergence action, score, test plant Ipomoea (Ipomoea [7])	Post-emergence action, score, test plant Sinapis (Sinapis)	Post-emergence action, score, test plant Setaria (Setaria [8])
C#CCOc1cc(-c2nn(C)c(C#N)c2C)c(Cl)cc1Cl [Comp. No. I3.027, 3-(2,4-dichloro-5-propargyloxyphenyl)-4-methyl-5-cyano-1-methyl-[1H]-pyrazole]	6	6	2	1	1	256 to 257	–	–	–	–	–
COc1cc(-c2nn(C)c(C#N)c2C)c(F)cc1Cl [I1.006]	4	4	1	1	1	–	–	–	–	–	–
Cc1c(-c2ccc(Cl)cc2F)nn(C)c1C#N [I1.001]	3	4	6	1	1	152 to 153	–	–	–	–	–
Cc1c(-c2ccc(Cl)cc2F)nn(C)c1C#N [I1, 001]	–	–	–	–	–	–	5	2	1	4	3
Cc1c(-c2cc(C(=O)OC(C)(C)C(=O)O)c(Cl)cc2F)nn(C)c1C#N [I1, 151]	–	–	–	–	–	–	1	–	1	1	3
Cc1c(-c2cc(CC(Cl)C(=O)OCc3ccccc3)c(Cl)cc2F)nn(C)c1C#N (centres unmarked) [I1, 122]	–	–	–	–	–	–	1	1	1	1	4
Cc1c(-c2cc(C(=O)O)c(Cl)cc2F)nn(C)c1C#N [I1, 130]	–	–	–	–	–	–	1	1	1	1	3
Cc1c(-c2cc(O)c(Cl)cc2Cl)nn(C)c1C#N [Comp. No. I36.103, 3-(2,4-dichloro-5-hydroxyphenyl)-4-methyl-5-cyano-1-methyl-[1H]-pyrazole]	–	–	–	–	–	263 to 265	–	–	–	–	–
C#CCOc1cc(-c2nn(C)c(C#N)c2C)c(Cl)cc1Cl [I3, 027]	–	–	–	–	–	–	3	1	3	3	6
Cc1c(-c2cc(C(=O)OC(C)C)c(Cl)cc2F)nn(C)c1C#N [I1.140]	4	3	1	2	1	–	–	–	–	–	–
COC(=O)c1cc(-c2nn(C)c(C#N)c2C)c(F)cc1Cl [I1, 134]	–	–	–	–	–	–	1	1	1	3	5
Cc1c(-c2cc(C(=O)OC(C)C)c(Cl)cc2F)nn(C)c1C#N [I1, 140]	–	–	–	–	–	–	1	1	1	4	2
COc1cc(-c2nn(C)c(C#N)c2C)c(F)cc1Cl [I1, 006]	–	–	–	–	–	–	3	1	1	3	2
Cc1c(-c2ccc(Cl)cc2F)nn(C)c1C(N)=S [I5, 001]	–	–	–	–	–	–	7	1	1	7	6
C#CCOc1cc(-c2nn(C)c(C#N)c2C)c(F)cc1Cl [I1, 027]	–	–	–	–	–	–	1	1	1	3	3
C#CCOc1cc(-c2nn(C)c(C#N)c2C)c(F)cc1Cl [I1.027]	4	3	1	1	2	145 to 146	–	–	–	–	–
Cc1c(-c2ccc(Cl)cc2F)nn(C)c1C(N)=S [I5.001]	6	6	7	1	1	–	–	–	–	–	–
